Measurements taken from patent US10456405B2, “Nitric oxide-releasing prodrug molecule of substituted quinazolines” (ZHEJIANG HUAHAI PHARMACEUTICAL CO., LTD, priority 2015, dated 2019).
Read-outs that look alike come from different tables or passages of the source.

What was measured:
[1] = tested on: ApoA-I mRNA; experiment: Regulation of ApoA-I mRNA in HepG2 cells (real-time PCR); format: cell-based; set-up: key: Active: When 100 μM of the tested compound allowed ApoA-I mRNA in HepG2 cells to increase more than 15%, then the test compound was known as an ApoA active compound; conditions: 100 μM, 48 h, relative to DMSO control
Method: Experiment 5. Regulation of the Tested Compounds on ApoA-I mRNA HepG2 cells were cultured for 24 h in a 24-well plate with 400 μl of MEM medium containing 0.5% (v/v) of fetal bovine serum. Then each of the tested compounds (100 μM) and the positive control RVX-208 (100 μM) were added. The cells were cultured for another 48 h. The medium was aspirated out. After washing with 200 μl of PBS, 85 μl of cell lysis solution was added into the cells in each well. The cells were incubated at room temperature for 5 to 10 min to be completely dissolved and detached. The mRNA was extracted from the cells with a kit. The extracted mRNA were used for a real-time fluorescence quantitative PCR detection with RNA Fluorescence (RiboGreen) Quantitation Assay Kit and ApoA-I mRNA Primer-Probe Mixture from the company of Applied Biosystems.
After obtaining the Ct values, the induction fold of each test compound relative to DMSO control was calculated. The induction fold was used to reflect the ability of regulating ApoA-I mRNA for the tested compounds. When 100 μM of the tested compound allowed ApoA-I mRNA in HepG2 cells to increase more than 15%, then the test compound was known as an ApoA active compound.

[2] = Release of HNO (headspace gas chromatography of nitrous oxide); conditions: PBS pH 7.4, 37° C., argon, 90 min
Method: Experiment 2. Experimental study on the tested compounds for releasing HNO HNO rapidly dimerizes and dehydrates to produce nitrous oxide in aqueous solution. In the experiment of detecting HNO, gas chromatographic headspace analysis is generally used to determine the amount of the released nitrous oxide, thereby indirectly detect the level of releasing HNO of the compound.
Experimental procedure: Each of the tested compounds was prepared to 20 mg/mL of mother liquor with DMF. Prior to the start of the experiment, 50 μL of drug mother liquor was placed into a 20 mL headspace sample vial. The tested compound was diluted by adding 5 mL of PBS buffer with pH 7.4. The temperature of the resulting sample was kept at 37° C. under argon gas for 90 min. Then the top gas was extracted for gas chromatographic analysis of nitrous oxide by using Angeli's Salt as a positive compound in the experiment.

[3] = Plasma stability in vitro, human plasma; conditions: for Content of Tested Substance (n = 2): human plasma, 2 μM, 37° C., in % (unit assumed); for stability in human plasma: within 2 h
Method: (§1) Experimental method: The tested compounds (2 μM) were added into mouse or human plasma, and incubated at 37° C. Samples were taken at 0, 10, 30, 60 and 120 min respectively. The reaction was stopped by adding a stop agent. The mixture was sufficient shaken, and centrifuged at 4000 rpm for 10 min at 4° C. The supernatant was taken. The concentrations of the tested compounds and their metabolite (H130) in the supernatant were measured by LC-MS/MS.

[4] = Plasma stability in vitro, mouse plasma; conditions: CD-1 mice plasma, 2 μM, 37° C., in % (unit assumed)
Method: as §1

[5] = Release of nitric oxide in vitro (Griess reagent, nitrite); conditions: 10^−4 mol/L tested substance, phosphate buffer pH 7.4, cysteine 5 mmol/L, 37° C., 1 h; as nitrite
Method: Experiment 1. Experimental Study on the Tested Compounds for Releasing Nitric Oxide in vitro
Experimental Procedure: • (1) Preparation of Griess Reagent: 4 g of aminobenzenesulfonamide, 0.2 g of N-naphthyl ethylene diamine hydrochloride, and 10 mL of 85% phosphoric acid solution were taken to form a solution, which is diluted to 100 mL with distilled water. • (2) Plotting of the standard curve: a serie of standard solution of 0.01, 0.03, 0.05, 0.07, 0.09, 0.2, 0.4 μg/mL of nitrite nitrogen was prepared, 10 mL of each was taken to sufficiently mix with 2.5 mL of Griess reagent, standing at room temperature for 10 min, and its absorbance value at the wavelength of 540 nm was measured. The standard curve was plotted based on the resulting data. • (3) Measuring the amount of the released NO of the tested drug: all of the tested substances were dissolved in dimethylsulfoxide (1 mL) firstly. Then phosphate buffer (pH 7.4) was slowly added dropwise, and shaken. The drug solution was diluted to 50 mL, allowing the buffer solution to contain excess cysteine (5 mmol/L), and the final concentration of the tested substances being 10^−4 mol/L; the solution was incubated at 37° C. 2 mL of the reaction solution was taken to mix with 500 μl of Griess reagent at 1 h respectively, standing at room temperature for 10 min. The absorbance value of the mixture at 540 nm was measured. Isosorbide mononitrate was used as a positive control, and H130 was used as a negative control. The amount of the released NO was represented by the amount of its oxidation product, nitrite (NO2^−).

[6] = rat, in vivo
Method: Experimental method: Intravenous injection solutions (the administration concentrations of the tested compounds were 1 mg/kg) and oral gastric perfusates (the administration concentrations of the test compounds were 5 mg/kg) of the test compounds were prepared, and intravenously and orally administered to three SD rats, respectively. The concentrations of the whole blood for H130 at 0.083 h, 0.25 h, 0.5 h, 1 h, 2 h, 4 h, 8 h, and 24 h after administration were determined by LC-MS/MS, respectively. The pharmacokinetic parameters were compared by a drug-time curve. Sample pretreatment: 150 μL of the whole blood to be tested was aspirated accurately. 600 μL of internal standard solution (diluted to 0.5 μg/mL with methanol) was added, sufficiently mixed by a vortex mixer, and centrifuged at 13000 r/min for 20 min at 4° C. 3 μL of the supernatant was taken into a sample vial.
Chromatographic conditions: C18 reversed-phase chromatographic column; gradient elution with mobile phase A: water/acetonitrile (v:v=95:5) with 0.025% of formic acid and 1 mM of ammonium acetate added thereto, and mobile phase B: acetonitrile/water (v:v=95:5) with 0.025% of formic acid and 1 mM of ammonium acetate added thereto.

[7] = tested on: C57BL/6 mice; experiment: Serum NO level in C57 mice after oral gavage; format: in vivo; conditions: oral gavage 150 mg/kg (positive drug 5 mg/kg), FIG. 1
Text: Experimental method: 60 eight-week-old C57BL/6 mice (level: SPF; gender: male; source: Shanghai SLAC Laboratory Animal Co., Ltd.) were selected. […] were selected as the blank control. 12 mice were used as the positive drug control (isosorbide mononitrate). 12 mice were used as […] administration group. The other 32 mice were randomly divided into 4 groups, 8 mice per group, which are […] administration group, […] administration group, […] administration group, and […] administration group, respectively. The tested compounds of the positive drug control group and each administration group were dissolved in DMSO and then PEG400 was added thereto. The mixture was shaken and mixed thoroughly. At last, 10% of HP-β-CD was added. The mixture was shaken and mixed thoroughly. The ratio of each solvent was DMSO: PEG400:10% of HP-β-CD=5:67.5:27.5. The administration groups were administered by oral gavage at the dose of 150 mg/kg. The positive drug control group was administered at the dose of 5 mg/kg. The mice in each group were sacrificed by inhaling excess CO2 at 10 min, 30 min, 60 min, 120 min, 180 min, and 240 min after administration. The blood was collected into a 1.5 mL centrifuge tube, standing at room temperature for more than 30 min, and then centrifuged (3000 rpm, 10 min). The supernatant serum was aspirated, and stored at -80° C. for testing. After the blood was collected, the heart was cut with the thoracic aorta. Three parts of the heart were weighed and placed into cryovials, rapidly frozen in liquid nitrogen, and cryopreserved at -80° C. for testing. The aorta and aortic arch were weighed, rapidly frozen in liquid nitrogen, and cryopreserved at -80° C. for testing. The content of NO in the serum of C57BL/6 mice was determined by using the total NO test kit (Beyotime).

[8] = tested on: db/db mice; experiment: Serum NO and heart eNOS in db/db mice after oral gavage; format: in vivo; conditions: blank = 100, oral gavage 150 mg/kg (isosorbide mononitrate 5 mg/kg), 1 h after administration (H101: 2 h)
Text: Experimental method: 25 eight-week-old db/db mice (strain: BKS.Cg−+Leprdb/+leprdb/JclSlac; grade: SPF; gender: male; source: Shanghai SLAC Laboratory Animal Co., Ltd.) were selected. 3 of them were selected as the blank administration control. 2 mice were used as the positive drug control (isosorbide mononitrate). The remaining 20 mice were randomly divided into 5 groups, 4 mice per group, which are H101 administration group, H111 administration group, H116 administration group, H119 administration group, and H130 administration group. The tested compounds of the positive drug control group and each administration group were dissolved in DMSO. Then PEG400 was added. The mixture was shaken and mixed thoroughly. At last, 10% of HP-β-CD was added. The mixture was shaken and mixed thoroughly. The ratio of each solvent was DMSO: PEG400:10% of HP-β-CD=5:67.5:27.5. The administration group was administered by oral gavage at the dose of 150 mg/kg. The positive drug control group was administered at the dose of 5 mg/kg. The mice in the H101 administration group were sacrificed at 2 h after the administration. The mice in the remaining administration groups were sacrificed at 1 h after the administration. The blood was collected respectively into 1.5 mL centrifuge tube, standing at room temperature for more than 30 min, and then centrifuged (3000 rpm, 10 min). The supernatant serum was aspirated, and stored at −80° C. for testing. After the blood was collected, the heart was cut with the thoracic aorta. Three parts of the heart were weighed and placed into cryovials, rapidly frozen in liquid nitrogen, and cryopreserved at −80° C. for testing. The aorta and aortic arch were weighed, rapidly frozen in liquid nitrogen, and cryopreserved at −80° C. for testing. The content of NO in the serum of the […] mice was determined by a total NO test kit (Beyotime). The content of NOS in the heart of the mice was determined with an NOS test kit (Beyotime). The content of eNOS was calculated by the difference between the measured values before and after adding the eNOS inhibitor L-NAME (Beyotime).

SMILES	Upregulation of Apoa-I Mrna Level [1]	Content of Tested Substance (n = 2) ([3]; 0 min)	Content of Tested Substance (n = 2) ([3]; 10 min)	Content of Tested Substance (n = 2) ([3]; 30 min)	Content of Tested Substance (n = 2) ([3]; 60 min)	Content of Tested Substance (n = 2) ([3]; 120 min)	stability in human plasma [3]	Content of Tested Substance (n = 2) ([4]; 0 min)	Content of Tested Substance (n = 2) ([4]; 10 min)	Content of Tested Substance (n = 2) ([4]; 30 min)	Content of Tested Substance (n = 2) ([4]; 60 min)	Content of Tested Substance (n = 2) ([4]; 120 min)	Amount of Released No [5] [µM]	other results
COc1cc(OC)c2c(=O)[nH]c(-c3cc(C)c(OCCOC(=O)ONS(=O)(=O)c4ccc(C)o4)c(C)c3)nc2c1 [Compound H104, N-((2-(4-(5,7-dimethoxy-4-oxo-3,4-dihydroquinazolin-2-yl)-2,6-dimethylphenoxy)ethoxy)carbonyloxy)-5-methylfuran-2-sulfonamide]	Active	100.0	99.5	88.7	81.1	75.8	good stability	100.0	0.5	0.0	0.0	0.3		Molar Quantities of N2O/Sample [2]: 23.6%
COc1cc(OC)c2c(=O)[nH]c(-c3cc(C)c(OCCOC(=O)CCC(=O)OCC(CO[N+](=O)[O-])(CO[N+](=O)[O-])CO[N+](=O)[O-])c(C)c3)nc2c1 [Compound H106, 2-[4-(5,7-dimethoxy-4-oxo-3,4-dihydro-quinazolin-2-yl)-2,6-dimethyl-phenoxy]-ethyl 3-(nitroxy)-2,2-di((nitroxy)methyl) propyl succinate]	Active												2.56	
COc1cc(OC)c2c(=O)[nH]c(-c3cc(C)c(OCCOC(=O)CCC(CO[N+](=O)[O-])O[N+](=O)[O-])c(C)c3)nc2c1 (stereo not drawn) [Compound H108, 2-[4-(5,7-dimethoxy-4-oxo-3,4-dihydro-quinazolin-2-yl)-2,6-dimethyl-phenoxy]-ethyl 4,5-dinitroxy-pentanoate]	Active	100.0	101.5	95.5	93.8	85.3	good stability	100.0	0.5	0.3	1.7	0.3	0.33	
COc1cc(OC)c2c(=O)[nH]c(-c3cc(C)c(OCCOC(=O)CNC(=O)CCCO[N+](=O)[O-])c(C)c3)nc2c1 [Compound H109, 2-[4-(5,7-dimethoxy-4-oxo-3,4-dihydro-quinazolin-2-yl)-2,6-dimethyl-phenoxy]-ethyl (4-nitroxy-butyrylamido)-acetate]	Active												1.49	
COc1cc(OC)c2c(=O)[nH]c(-c3cc(C)c(OCCOC(=O)CC(N)C(=O)OCC(CO[N+](=O)[O-])O[N+](=O)[O-])c(C)c3)nc2c1.Cl (stereo not drawn) [Compound H118, 1-(2,3-dinitroxy-propyl) 4-{2-[4-(5,7-dimethoxy-4-oxo-3,4-dihydro-quinazolin-2-yl)-2,6-dimethyl-phenoxy]-ethyl}2-amino-succinate hydrochloride]	Active												1.74	release of prototype compound H130 after administration [6]: can be rapidly released; AUCRatio (Dosage Calibration) ([6]; iv, 1 mg/kg): 19.2%; AUCRatio (Dosage Calibration) ([6]; po, 5 mg/kg): 14.1%
O=[N+]([O-])O[C@@H]1CO[C@H]2[C@@H]1OC[C@@H]2O [Isosorbide Mononitrate, Isosorbide mononitrate, reference compound]													3.31	time after administration at which serum NO level rose to its maximum, then decreased [7]: 2 h; Heart eNOS [8]: 169%; Serum NO [8]: 136%
